Source: patent US20190255022A1, “WOUND-HEALING AGENT” (NIPPON CHEMIPHAR CO., LTD., priority 2016, published 2019)

Tested on: rat pressure ulcer model
Experiment: Effect of compound A in rat pressure ulcer model
Assay type: in vivo
Settings: for Number of days required for healing: 150 mg once a day until healing; for Number of days required for healing / wound area ratio: mean±standard error; for wound area ratio: 150 mg once a day
Method: The compound A was weighed in the required amount, and polyethylene glycol 400 (PEG400) was added to the compound to prepare liquids having final concentrations of the compound of 0.01, 0.1, and 1.0 w/v %. In order to prepare ointments having final concentrations of the compound of 0.005, 0.05, and 0.5 w/w %, PEG4000 melted by warming at 65° C. was added to the liquids, and the liquids were stirred until they solidified at room temperature to prepare ointments having concentrations of the compound of 0.005, 0.05, and 0.5 w/w %.
Pentobarbital sodium was intraperitoneally administered (50 mg/kg) to 8 weeks old Slc:SD rats, of which skins on the right third trochanter had been broadly depilated beforehand using an electric clipper and an electric shaver, 20 mg/kg of allobarbital was further intraperitoneally administered to anesthetize the rats, and the animals were fixed on wooden fixation plates in the prone position. Absorbent cotton was inserted between the femoral region and the fixation plate as a cushion, and a stainless steel bar (diameter 19 mm, length 50 cm) having a weight of 1.02 to 1.03 kg and attached with a rubber stopper (diameter 12 mm) was placed on the skin over the right third trochanter to give a pressure load (902.3 to 911.2 g/cm^2) for 24 hours^5). After 24 hours, the pressure load was eliminated, a 5% glucose solution was orally administered to the rats, and two days after the elimination of the pressure load, the necrotic skin was surgically removed under isoflurane anesthesia to prepare a pressure ulcer model. As for the methods of the experiments, Hidetoshi Hamamoto et al., Clinical Pharmacology and Therapy (Yakuri to Rinsho), 15:255-262, 2005, Effect of MRX-201 on Wound Healing Dermal Burns and Decubitus Ulcer in Rat was referred to.
After the preparation of the pressure ulcer model, the administration was performed once a day at a dose of 150 mg until healing was completed. The wound surface was cleaned with absorbent cotton dipped in physiological saline before the administration, and the ointment was applied to the whole wound surface with a spatula.
Wound area was measured once a day after the start of the administration of the test substance until healing was completed. By using the measured wound area, wound area ratio (%) based on the wound area before the start of the administration was calculated. The number of days of the period from the start of the administration to healing was calculated as number of days required for healing.
Homoscedasticity was examined by the Bartlett's method. When homoscedastic results were obtained, one-way layout analysis of variance was further performed, and when significant results were obtained, mean values were compared by the Tukey's method. When heteroscedastic results were obtained, Kruskal-Wallis H-test was performed, and when significant results were obtained, mean ranks were compared by the Tukey's method. For the Bartlett's method, one-way analysis of variance, and Kruskal-Wallis H-test, the statistical significance level was set at 5%, and for the Tukey's method, the statistical significance level was set at 5% and 1%.

Cc1cc2c(CCc3sc(-c4ccc(C(F)(F)F)cc4)nc3C(C)C)noc2cc1OCC(=O)O [compound A, [3-[2-[4-isopropyl-2-(4-trifluoromethyl)phenyl-5-thiazolyl]ethyl]-5-methyl-1,2-benzisoxazol-6-yl]oxyacetic acid]
number of the days required for healing compared with the vehicle-administered group (0.005% and 0.05% compound A-administered groups): significantly decreased | Number of days required for healing (0.005% compound A ointment, n=10): 20.1 ± 1.4 days | wound area ratio (0.005% compound A ointment, day 1 of administration, n=10): 100.0 ± 0.0% | wound area ratio (0.005% compound A ointment, day 2 of administration, n=10): 108.3 ± 3.1% | wound area ratio (0.005% compound A ointment, day 3 of administration, n=10): 108.9 ± 3.9% | wound area ratio (0.005% compound A ointment, day 4 of administration, n=10): 99.9 ± 3.5 % | wound area ratio (0.005% compound A ointment, day 5 of administration, n=10): 92.1 ± 3.7 % | wound area ratio (0.005% compound A ointment, day 6 of administration, n=10): 76.4 ± 5.5 % | wound area ratio (0.005% compound A ointment, day 7 of administration, n=10): 66.4 ± 4.7 % | wound area ratio (0.005% compound A ointment, day 8 of administration, n=10): 55.2 ± 4.8 % | wound area ratio (0.005% compound A ointment, day 9 of administration, n=10): 45.3 ± 4.3 % | wound area ratio (0.005% compound A ointment, day 10 of administration, n=10): 39.4 ± 4.1 % | wound area ratio (0.005% compound A ointment, day 11 of administration, n=10): 31.5 ± 3.3 % | wound area ratio (0.005% compound A ointment, day 12 of administration, n=10): 23.8 ± 2.4 % | wound area ratio (0.005% compound A ointment, day 13 of administration, n=10): 19.6 ± 2.3 % | wound area ratio (0.005% compound A ointment, day 14 of administration, n=10): 14.4 ± 2.5 % | wound area ratio (0.005% compound A ointment, day 15 of administration, n=10): 10.3 ± 2.1% | wound area ratio (0.005% compound A ointment, day 16 of administration, n=10): 7.1 ± 1.8 % | wound area ratio (0.005% compound A ointment, day 17 of administration, rats except for the healed rats): 4.4 ± 1.5 % | wound area ratio (0.005% compound A ointment, day 18 of administration, rats except for the healed rats): 4.9 ± 1.6^ % | wound area ratio (0.005% compound A ointment, day 19 of administration, rats except for the healed rats): 3.3 ± 1.5 % | wound area ratio (0.005% compound A ointment, day 20 of administration, rats except for the healed rats): 2.8 ± 1.5^ % | wound areas compared with the vehicle-administered group (0.005% compound A-administered group, from the day 4 of the administration): significantly smaller | wound areas compared with the vehicle-administered group (0.05% and 0.5% compound A-administered groups, from the day 5 of the administration): significantly smaller | Number of days required for healing (0.05% compound A ointment, n=10): 19.7 ± 1.1 days | wound area ratio (0.05% compound A ointment, day 1 of administration, n=10): 100.0 ± 0.0% | wound area ratio (0.05% compound A ointment, day 2 of administration, n=10): 115.0 ± 2.8% | wound area ratio (0.05% compound A ointment, day 3 of administration, n=10): 113.6 ± 3.5% | wound area ratio (0.05% compound A ointment, day 4 of administration, n=10): 104.9 ± 3.1% | wound area ratio (0.05% compound A ointment, day 5 of administration, n=10): 95.1 ± 3.7 % | wound area ratio (0.05% compound A ointment, day 6 of administration, n=10): 84.4 ± 2.8% | wound area ratio (0.05% compound A ointment, day 7 of administration, n=10): 73.5 ± 2.7 % | wound area ratio (0.05% compound A ointment, day 8 of administration, n=10): 63.4 ± 3.1 % | wound area ratio (0.05% compound A ointment, day 9 of administration, n=10): 49.8 ± 4.2 % | wound area ratio (0.05% compound A ointment, day 10 of administration, n=10): 41.6 ± 3.9 % | wound area ratio (0.05% compound A ointment, day 11 of administration, n=10): 31.2 ± 3.1 % | wound area ratio (0.05% compound A ointment, day 12 of administration, n=10): 22.3 ± 3.6 % | wound area ratio (0.05% compound A ointment, day 13 of administration, n=10): 16.4 ± 4.0 % | wound area ratio (0.05% compound A ointment, day 14 of administration, n=10): 12.1 ± 3.7 % | wound area ratio (0.05% compound A ointment, day 15 of administration, n=10): 8.6 ± 3.2 % | wound area ratio (0.05% compound A ointment, day 16 of administration, n=10): 7.5 ± 3.3 % | wound area ratio (0.05% compound A ointment, day 17 of administration, rats except for the healed rats): 6.7 ± 3.2 % | wound area ratio (0.05% compound A ointment, day 18 of administration, rats except for the healed rats): 7.8 ± 3.8^ % | wound area ratio (0.05% compound A ointment, day 19 of administration, rats except for the healed rats): 5.4 ± 2.9^ % | wound area ratio (0.05% compound A ointment, day 20 of administration, rats except for the healed rats): 5.4 ± 3.2^ % | Number of days required for healing (0.5% compound A ointment, n=10): 21.0 ± 1.2 days | wound area ratio (0.5% compound A ointment, day 1 of administration, n=10): 100.0 ± 0.0% | wound area ratio (0.5% compound A ointment, day 2 of administration, n=10): 119.6 ± 5.0% | wound area ratio (0.5% compound A ointment, day 3 of administration, n=10): 117.5 ± 5.0% | wound area ratio (0.5% compound A ointment, day 4 of administration, n=10): 109.5 ± 4.6% | wound area ratio (0.5% compound A ointment, day 5 of administration, n=10): 93.2 ± 4.3 % | wound area ratio (0.5% compound A ointment, day 6 of administration, n=10): 84.9 ± 4.3% | wound area ratio (0.5% compound A ointment, day 7 of administration, n=10): 77.0 ± 5.1% | wound area ratio (0.5% compound A ointment, day 8 of administration, n=10): 65.3 ± 4.4% | wound area ratio (0.5% compound A ointment, day 9 of administration, n=10): 56.0 ± 4.0% | wound area ratio (0.5% compound A ointment, day 10 of administration, n=10): 49.2 ± 3.9% | wound area ratio (0.5% compound A ointment, day 11 of administration, n=10): 39.7 ± 4.6% | wound area ratio (0.5% compound A ointment, day 12 of administration, n=10): 28.3 ± 3.4% | wound area ratio (0.5% compound A ointment, day 13 of administration, n=10): 19.6 ± 2.2 % | wound area ratio (0.5% compound A ointment, day 14 of administration, n=10): 15.5 ± 1.6 % | wound area ratio (0.5% compound A ointment, day 15 of administration, n=10): 8.0 ± 0.9 % | wound area ratio (0.5% compound A ointment, day 16 of administration, n=10): 5.6 ± 0.7 % | wound area ratio (0.5% compound A ointment, day 17 of administration, rats except for the healed rats): 3.7 ± 0.5 % | wound area ratio (0.5% compound A ointment, day 18 of administration, rats except for the healed rats): 2.2 ± 0.6 % | wound area ratio (0.5% compound A ointment, day 19 of administration, rats except for the healed rats): 2.2 ± 0.6 % | wound area ratio (0.5% compound A ointment, day 20 of administration, rats except for the healed rats): 1.6 ± 0.4 % | exacerbation of wounds (from the day 1 to day 3 of the administration, a tendency): suppressed
